Key:
[1] = system: human bronchiols; assay: Test Procedure A: remaining contraction of human bronchus preparation on LTD4 challenge after 1 h pre-treatment with test item; type: cell-based; settings: 10 nM Leukotriene D4; for % RC 1 μM: test item 1 μM pre-treatment; for % RC 10 μm: test item 10 μm, 1 h pre-treatment
Method: (§1) The usefulness of the compounds, as defined in the embodiments herein, in treating, revoking, mitigating, alleviating and/or preventing a condition of the respiratory apparatus characterized by bronchoconstriction, were evaluated in a complex and relevant in vitro model, which is described in US 2006-0040254 A1 and Skogvall, S., Berglund, M., Dalence-Guzmán, M. F., Svensson, K., Jönsson, P., Persson, C. G. A and Sterner, O., Pulmonary Pharmacology and Therapeutics, vol 20:3, 2007, p. 273-280. All references disclosed herein are hereby incorporated in their entirety by reference.
(§2) Lung tissue was obtained from patients undergoing lobectomia or pulmectomia due to lung carcinoma. The tissue was placed in a dissection chamber continuously perfused with 10 ml min^−1 of a physiological saline solution (PSS) at room temperature. An airway was identified in the cut part of the lobe, and a bronchus of 10-20 mm length, and 1-2 mm diameter was obtained. The bronchus was cut into rings of a width of about 2-3 mm. Each bronchial ring was cleaved to obtain an about rectangular oblong preparation free from cartilage, one end of which was tied to a small steel hook connected to a force transducer, while the other end of the preparation was attached to a fixed hook. This is followed by a period of adjustment, as described below. The preparation was mounted in an atmosphere containing 12% of oxygen and 6% of CO2.
(§3) The experimental assay system consists of 8 chambers, each with a volume of 6 ml, and is continuously perfused with solutions at a rate of 3 ml/min at 37° C. The chambers are equipped with force transducers (model AME 801, SensoNor A/S, Horton, Norway) allowing the individual registration of parallel preparations. The force transducers are connected to micrometer screws for stretching of tissue preparations to the desired tone. Recordings from the experiments are sampled and analysed using software from ADInstrumets. The substances to be tested and contractile agent are injected upstream of the preparation(s).
(§4) Materials. PPS (physiological saline solution, in mM): NaCl, 117; KCl, 4.87; MgSO4, 0.60; NaHCO3, 25.0; CaCl2, 1.60; glucose, 5.23. The solution is saturated with a mixture of 94% oxygen and 6% carbon dioxide, giving a pH of 7.40±0.05 in the experimental chamber. All substances are prepared as stock solution dissolved in the vehicles ethanol or DMSO. Leukotriene D4 (LTD4; Cayman Ltd.): 10 μl of a 100 μM ethanol stock solution. Substance to be tested: 10-100 μl of a 0.01-0.1 M DMSO stock solution. Solution for establishing the passive tension level: calcium-free PSS+2 mM EGTA. To exclude effects by the test substance vehicle, DMSO was added during the entire experiment except during the presence of test substance.
After mounting as described above the preparation is allowed to adjust with a low passive tone in the experimental chamber. The composition of the gas is changed to 94% (v/v) of oxygen. After a short adjustment period, PSS with 10 nM LTD4 is added to the experimental chamber upstream of the preparation (A). The preparation is stretched repeatedly (B) until it exerts a contraction force of around 150 mg. When the contraction has levelled off, LTD4-free solution is administered for 1 hour (C), resulting in a relaxation. A second injection of 10 nM LTD4 (D) makes the preparation return to the tensioned state. At the peak tension leukotriene-free solution is again administered (E). After a third injection of 10 nM LTD4 (F) the preparation returns to the tensioned state. […] After 1 h exposure to the test item, 10 nM LTD4 is added, resulting in a contraction (H). If the test item is a bronkorelaxant, a substantially weaker contraction is now observed (H) in comparison with the control LTD4 contraction (F). To obtain a measure of the test substance's bronchorelaxing effect the test and control forces registered in the experiment are compared. […]

[2] = system: human bronchiols; assay: Test Procedure B: remaining contraction of LTD4-contracted human bronchus preparation under sequential test item concentrations; type: cell-based; settings: for % RC 0.1 μM: test item 0.1 μM for 1 h in 10 nM LTD4 PSS; for % RC 1 μM: test item 1 μM for 1 h in 10 nM LTD4 PSS; for % RC 1 μM / % RC 10 μM: sequential; for % RC 10 μM: test item 10 μM for 1 h in 10 nM LTD4 PSS
Method: as §1, §2, §3, §4
After mounting as described above the preparation is allowed to adjust with a low passive tone in the experimental chamber. The composition of the gas is changed to 94% (v/v) of oxygen. After a short adjustment period, PSS with 10 nM LTD4 is added to the experimental chamber upstream of the preparation (A). The preparation is stretched repeatedly (B) until it exerts a contraction force of around 150 mg. The preparation is kept at level contraction, plateau, with 10 nM LTD4 for 30 min (C). The preparation is then treated with 0.1 μM of the test item in 10 nM LTD4 PSS for 1 h. This is followed by the sequential treatment with 1 μM of the test item in 10 nM LTD4 PSS for 1 h (E) and finally 10 uM of the test item in 10 nM LTD4 PSS for 1 h (F). The experiment is concluded by adding calcium-free solution with addition of 2 mM EGTA for 20 min to establish the passive tension level base line (G).
The result, bronchorelaxing efficiency, is calculated as follows: by comparing and obtaining the ratio between the tensioned states (relative to base line) at the different concentrations, the bronchorelaxing efficiency of the test item is determined. The results are expressed as % remaining contraction (RC). […]

SMILES	% RC 1 μM [1] [%]	% RC 10 μm [1] [%]	% RC 0.1 μM [2] [%]	% RC 1 μM [2] [%]	% RC 10 μM [2] [%]
Cc1nc2ncccc2cc1C(=O)NCc1ccc(C(F)(F)F)cc1 [Example 2, 2-Methyl-N-(4-(trifluoromethyl)benzyl)-1,8-naphthyridine-3-carboxamide]	77	23	–	–	–
Cc1nc2ncccc2cc1C(=O)NCc1csc(-c2ccccc2)n1 [Example 4, 2-Methyl-N-((2-phenylthiazol-4-yl)methyl)-1,8-naphthyridine-3-carboxamide]	–	–	85	39	4
Cc1nc2ncccc2cc1C(=O)NCc1cccc(C(F)(F)F)c1 [Example 14, 2-Methyl-N-(3-(trifluoromethyl)benzyl)-1,8-naphthyridine-3-carboxamide]	76	15	–	–	–
Cc1nc2ncccc2cc1C(=O)NCc1ccc(Cl)c(C(F)(F)F)c1 [Example 17, N-(4-Chloro-3-(trifluoromethyl)benzyl)-2-methyl-1,8-naphthyridine-3-carboxamide]	67	8	–	–	–
Cc1nc2ncccc2cc1C(=O)NCc1ccc(-c2ccccc2)cc1 [Example 19, N-(Biphenyl-4-ylmethyl)-2-methyl-1,8-naphthyridine-3-carboxamide]	41	17	–	–	–
Cc1nc2ncccc2cc1C(=O)NCc1ccc(N2CCN(C)CC2)c(C(F)(F)F)c1 [Example 62, 2-methyl-N-(4-(4-methylpiperazin-1-yl)-3-(trifluoromethyl)benzyl)-1,8-naphthyridine-3-carboxamide]	–	–	92	63	17
Cc1nc2ncccc2cc1C(=O)OCc1csc(-c2ccccc2)n1 [Example 101, (2-Phenylthiazol-4-yl)methyl 2-methyl-1,8-naphthyridine-3-carboxylate]	–	–	72	63	27
Cc1ccc2cc(C(=O)NCc3ccc(C(C)(C)C)cc3)c(C)nc2n1 [Example 109, N-(4-tert-butylbenzyl)-2,7-dimethyl-1,8-naphthyridine-3-carboxamide]	–	–	73	25	1

Source: patent US8415333B2, “Bronchodilating diazaheteroaryls” (Respiratorious AB, priority 2009, dated 2013)
